ChEMBL document CHEMBL5154806, “Synthesis and Profiling of Highly Selective Inhibitors of Methyltransferase DOT1L Based on Carbocyclic C-Nucleosides” (J Med Chem, 2022)
Values belong to the molecule of their own block, whether it stands above or below them.

What was measured:
[1] = Elimination rate constant in fasted BALB/c mouse at 20 mg/kg, po administered upto 600 mins by HPLC-MS/MS analysis; format: ADME, organism-based; details: in vivo
[2] = AUC (0 to infinity) in fasted BALB/c mouse at 20 mg/kg, po administered upto 600 mins by HPLC-MS/MS analysis; format: ADME, organism-based; parameters: dose 20 mg/kg, time < 600 min, route po; details: in vivo
[3] = Cmax in fasted BALB/c mouse at 20 mg/kg, iv administered upto 600 mins by HPLC-MS/MS analysis; format: ADME, organism-based; parameters: time < 600 min, dose 20 mg/kg, route iv; details: in vivo
[4] = AUC (0 to t) in fasted BALB/c mouse at 20 mg/kg, iv administered upto 600 mins by HPLC-MS/MS analysis; format: ADME, organism-based; parameters: dose 20 mg/kg, time < 600 min, route iv; details: in vivo
[5] = Volume of distribution in fasted BALB/c mouse at 20 mg/kg, iv administered upto 600 mins by HPLC-MS/MS analysis; format: ADME, organism-based; details: in vivo
[6] = AUC (0 to t) in fasted BALB/c mouse at 20 mg/kg, po administered upto 600 mins by HPLC-MS/MS analysis; format: ADME, organism-based; parameters: dose 20 mg/kg, time < 600 min, route po; details: in vivo
[7] = Tmax in fasted BALB/c mouse at 20 mg/kg, po administered upto 600 mins by HPLC-MS/MS analysis; format: ADME, organism-based; details: in vivo
[8] = Cmax in fasted BALB/c mouse at 20 mg/kg, po administered upto 600 mins by HPLC-MS/MS analysis; format: ADME, organism-based; parameters: time < 600 min, dose 20 mg/kg, route po; details: in vivo
[9] = Tmax in fasted BALB/c mouse at 20 mg/kg, iv administered upto 600 mins by HPLC-MS/MS analysis; format: ADME, organism-based; details: in vivo
[10] = Bioavailability in fasted BALB/c mouse at 20 mg/kg, iv administered upto 600 mins by HPLC-MS/MS analysis; format: ADME, organism-based; details: in vivo
[11] = AUC (0 to infinity) in fasted BALB/c mouse at 20 mg/kg, iv administered upto 600 mins by HPLC-MS/MS analysis; format: ADME, organism-based; parameters: dose 20 mg/kg, time < 600 min, route iv; details: in vivo
[12] = Elimination rate constant in fasted BALB/c mouse at 20 mg/kg, iv administered upto 600 mins by HPLC-MS/MS analysis; format: ADME, organism-based; details: in vivo
[13] = Half life in fasted BALB/c mouse at 20 mg/kg, iv administered upto 600 mins by HPLC-MS/MS analysis; format: ADME, organism-based; details: in vivo
[14] = target: T1, Histone-lysine N-methyltransferase, H3 lysine-79 specific (Homo sapiens, UniProt Q8TEK3); test: Inhibition of human DOT1L by hotspot PMT activity assay
Target sequence in this assay (Q8TEK3 whole entry): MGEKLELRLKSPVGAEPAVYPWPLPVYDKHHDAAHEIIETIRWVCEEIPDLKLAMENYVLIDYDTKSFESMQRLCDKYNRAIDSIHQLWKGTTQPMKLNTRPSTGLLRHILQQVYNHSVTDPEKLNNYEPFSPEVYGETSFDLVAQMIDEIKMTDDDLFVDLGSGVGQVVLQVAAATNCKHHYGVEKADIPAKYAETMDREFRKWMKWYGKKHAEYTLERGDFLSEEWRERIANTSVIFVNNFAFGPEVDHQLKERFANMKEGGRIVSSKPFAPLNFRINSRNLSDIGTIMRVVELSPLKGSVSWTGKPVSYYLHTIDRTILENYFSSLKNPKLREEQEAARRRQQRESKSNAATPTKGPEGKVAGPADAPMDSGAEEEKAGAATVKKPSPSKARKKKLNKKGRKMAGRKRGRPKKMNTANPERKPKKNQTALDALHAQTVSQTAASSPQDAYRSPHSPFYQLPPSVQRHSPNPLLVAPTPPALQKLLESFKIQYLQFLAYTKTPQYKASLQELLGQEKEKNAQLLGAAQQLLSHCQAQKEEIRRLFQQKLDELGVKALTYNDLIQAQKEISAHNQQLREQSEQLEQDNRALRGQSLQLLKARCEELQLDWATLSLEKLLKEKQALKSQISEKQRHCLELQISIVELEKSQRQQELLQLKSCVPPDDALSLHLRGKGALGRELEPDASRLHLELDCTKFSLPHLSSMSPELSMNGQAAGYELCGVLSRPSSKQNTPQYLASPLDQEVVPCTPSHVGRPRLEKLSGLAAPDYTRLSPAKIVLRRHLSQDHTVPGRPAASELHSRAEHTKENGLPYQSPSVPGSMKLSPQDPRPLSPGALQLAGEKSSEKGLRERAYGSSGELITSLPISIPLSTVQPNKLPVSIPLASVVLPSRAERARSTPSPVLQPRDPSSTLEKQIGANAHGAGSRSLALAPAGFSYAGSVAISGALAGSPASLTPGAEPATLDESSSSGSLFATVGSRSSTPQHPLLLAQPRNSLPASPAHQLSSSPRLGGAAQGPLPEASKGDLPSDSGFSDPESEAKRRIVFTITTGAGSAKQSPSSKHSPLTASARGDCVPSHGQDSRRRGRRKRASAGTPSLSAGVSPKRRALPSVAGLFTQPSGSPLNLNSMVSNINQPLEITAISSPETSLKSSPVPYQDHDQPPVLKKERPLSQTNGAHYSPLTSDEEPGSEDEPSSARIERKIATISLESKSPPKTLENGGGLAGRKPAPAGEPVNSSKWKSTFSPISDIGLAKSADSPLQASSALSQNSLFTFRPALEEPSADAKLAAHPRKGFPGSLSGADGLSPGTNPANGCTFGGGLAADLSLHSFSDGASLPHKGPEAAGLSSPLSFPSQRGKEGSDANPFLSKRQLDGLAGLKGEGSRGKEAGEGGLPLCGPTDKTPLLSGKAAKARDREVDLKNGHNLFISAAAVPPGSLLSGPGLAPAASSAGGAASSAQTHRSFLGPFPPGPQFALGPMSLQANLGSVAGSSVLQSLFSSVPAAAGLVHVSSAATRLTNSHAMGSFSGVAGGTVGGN

[15] = Clearance in fasted BALB/c mouse at 20 mg/kg, iv administered upto 600 mins by HPLC-MS/MS analysis; format: ADME, organism-based; details: in vivo
[16] = Half life in fasted BALB/c mouse at 20 mg/kg, po administered upto 600 mins by HPLC-MS/MS analysis; format: ADME, organism-based; details: in vivo
[17] = target: T1, Histone-lysine N-methyltransferase, H3 lysine-79 specific; test: Binding affinity to human DOT1L assessed as binding free energy difference
Target sequence in this assay (Q8TEK3 whole entry, looked up): as the sequence (Q8TEK3 whole entry) above

- IC50 [14]: 0.292 µM
SMILES: CC(C)N(CCCNC(=O)Nc1ccc(C(C)(C)C)cc1)C[C@H]1C[C@@H](c2ccc3c(N)ncnn23)[C@H](O)[C@@H]1O

- IC50 [14]: 0.0138 µM
SMILES: CC(C)N(C[C@H]1C[C@@H](c2ccc3c(N)ncnn23)[C@H](O)[C@@H]1O)[C@H]1C[C@H](CCc2nc3cc(C(C)(C)C)ccc3[nH]2)C1 (racemic)

- IC50 [14]: 7.41 µM
SMILES: CN(CCCNC(=O)Nc1ccc(C(C)(C)C)cc1)C[C@H]1C[C@@H](c2ccc3c(N)ncnn23)[C@H](O)[C@@H]1O (stereo in doubt; (+)-25) [listing 1 of 2 here]

- deltaG [17]: -1 kJ/mol
SMILES: CN(CCCNC(=O)Nc1ccc(C(C)(C)C)cc1)C[C@H]1C[C@@H](c2ccc3c(N)ncnn23)[C@H](O)[C@@H]1O (stereo in doubt; (+)-25) [listing 2 of 2 here]

The remaining lines, values behind:

SMILES: CN(CCCNC(=O)Nc1ccc(C(C)(C)C)cc1)C[C@H]1C[C@@H](c2ccc3c(N)ncnn23)[C@H](O)[C@@H]1O (stereo in doubt; (-)-25)
- k el at 10 h [1]: 0.0017 s⁻¹
- AUC(0-inf) [2]: 0.00853 µg·h/mL
- Cmax [3]: 8.32 µg/mL
- AUC(0-t) at 10 h [4]: 3.02 µg·h/mL
- Vd [5]: 18.4 L/kg
- AUC(0-t) at 10 h [6]: 0.00807 µg·h/mL
- Tmax [7]: 5 min
- Cmax [8]: 0.0364 µg/mL
- Tmax [9]: 5 min
- bioavailability [10]: 0.3%
- AUC(0-inf) [11]: 3.08 µg·h/mL
- k el at 10 h [12]: 9.82e-05 s⁻¹
- half-life [13]: 118 min
- IC50 [14]: 0.019 µM
- clearance [15]: 6.48 L/h/kg
- half-life [16]: 6.78 min

SMILES: CN(CCCNC(=O)Nc1ccccc1)C[C@H]1C[C@@H](c2ccc3c(N)ncnn23)[C@@H](O)[C@@H]1O
- deltaG [17]: 16 kJ/mol

SMILES: CC(C)N(CCCNC(=O)NC12CC3CC(CC(C3)C1)C2)C[C@H]1C[C@@H](c2ccc3c(N)ncnn23)[C@H](O)[C@@H]1O
- IC50 [14]: > 10 µM

SMILES: Nc1ncnn2c([C@@H]3C[C@H](CO)[C@@H](O)[C@H]3O)ccc12
- IC50 [14]: > 10 µM

SMILES: CN(CCCNC(=O)Nc1ccccc1)C[C@H]1C[C@@H](c2cnn3c(N)ccnc23)[C@H](O)[C@@H]1O
- deltaG [17]: 11 kJ/mol
